Experimental data from paper PMC11714206, “Massively Parallel Screening of Toll/Interleukin‐1 Receptor (TIR)‐Derived Peptides Reveals Multiple Toll‐Like Receptors (TLRs)‐Targeting Immunomodulatory Peptides” (Advanced Science, 2024).
One block for each sequence: values may come before it.

Target: T1, MAL^TIR (Homo sapiens, UniProt P58753)
T1 construct: MAL (residues 79–221); 6xHis; made in house; host or cells: E. coli BL21 (DE3)
Assay: T‐Surf phage library (P8 and P3) selection against MAL^TIR, four rounds, NGS read counts
Format: binding
Conditions: for P3_MAL Rank (after) / P3_MAL Rank (before): P3 library; for P8_MAL Rank (after) / P8_MAL Rank (before): P8 library; for Population: 4th round of selection against MAL TIR, share of NGS reads
Summary of the method: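 P8 and P3 T‐Surf libraries panned against plate-coated TIR domains (5 µg mL^−1), 1 h binding at RT, acid elution and TG1/helper-phage amplification per round. After four rounds, pools were PCR-barcoded and sequenced (NovaSeq, 100 bp paired-end, Phred ≥30); peptides ranked by read counts.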

[1] = selection against MAL, rank by count after grouping
[2] = selection against MAL, rank by count before grouping
[3] = selection against MAL TIR, rank by count after grouping
[4] = selection against MAL TIR, rank by count before grouping
[5] = 4R selection against MAL, rank after grouping
[6] = 4R selection against MAL, rank before grouping
[7] = selection against MAL, rank after grouping
[8] = selection against MAL, rank before grouping
[9] = P8_MAL pool: P8 T-Surf phage library
[10] = P3_MAL pool: P3 T-Surf phage library
[11] = P8_MAL: rank by count after grouping
[12] = P8_MAL: rank by count before grouping
[13] = P3_MAL: rank by count after grouping
[14] = P3_MAL: rank by count before grouping

T1 sequence (P58753 79-221): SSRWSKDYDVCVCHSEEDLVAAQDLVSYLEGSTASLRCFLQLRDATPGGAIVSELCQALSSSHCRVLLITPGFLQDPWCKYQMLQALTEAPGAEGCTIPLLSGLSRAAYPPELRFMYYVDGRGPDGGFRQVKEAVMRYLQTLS

Sequence: ESILTKLRRSSQSIAN
- P3_MAL Rank (after) [5]: 597
- P3_MAL Rank (before) [6]: 2045

Sequence: WFNIRLVTVLDHVNDV
- P8_MAL Rank (after) [7]: 573
- P8_MAL Rank (before) [8]: 1391

Sequence: YFLNFLLFSRPETDYI
- Rank (after) [11]: 457
- Rank (before) [12]: 1516

Sequence: WFYERMVSLILRDTKL
- Rank (after) [11]: 136
- Rank (before) [12]: 1262

Sequence: LFLWASLKQLLRSANC
- P8_MAL Rank (after) [5]: 661
- P8_MAL Rank (before) [6]: 2142

Sequence: RGFLYQAFAREGFKIFM
- P3_MAL Rank (after) [5]: 581
- P3_MAL Rank (before) [6]: 2353

Sequence: HQTFWDRLCAKLKAPI
- P3_MAL Rank (after) [1]: 705
- P3_MAL Rank (before) [2]: 2898

Sequence: VEQTQVRKPSGAVENA
- P3_MAL Rank (after) [5]: 627
- P3_MAL Rank (before) [6]: 1687

Sequence: WFYERLVSLILRVTKV
- Population [9]: 0.00309%

Sequence: RLLNWKEARHQFHSWV
- P3_MAL Rank (after) [3]: 243
- P3_MAL Rank (before) [4]: 2479

Sequence: AFFWAQLKQLLRSDGR
- P8_MAL Rank (after) [5]: 629
- P8_MAL Rank (before) [6]: 1610

Sequence: CLLKWKEALHQFHSGV
- Rank (after) [13]: 447
- Rank (before) [14]: 1216

Sequence: LSGWAFKRGSCAEYEY
- Rank (after) [13]: 398
- Rank (before) [14]: 2188

Sequence: WFYERLVGLILRETEG
- P8_MAL Rank (after) [5]: 660
- P8_MAL Rank (before) [6]: 1163

Sequence: SFLYTLLSNLTHPTNF
- P8_MAL Rank (after) [3]: 265
- P8_MAL Rank (before) [4]: 1449

Sequence: IFCISCCLAVRKPSI
- P8_MAL Rank (after) [3]: 241
- P8_MAL Rank (before) [4]: 2434

Sequence: LFYEESLKQLLRANDR
- P8_MAL Rank (after) [3]: 276
- P8_MAL Rank (before) [4]: 1101

Sequence: ESILNQLRRSSQSMR
- P3_MAL Rank (after) [3]: 202
- P3_MAL Rank (before) [4]: 2061

Sequence: AFLWTQLKSVLGNPTM
- P8_MAL Rank (after) [3]: 242
- P8_MAL Rank (before) [4]: 1764

Sequence: YAFTGHLHHYLVQRGV
- Population [10]: 0.00564%

Sequence: AFLYTFLINLTRPTNF
- Population [9]: 0.0034%

The remaining lines, values ahead:

- P3_MAL Rank (after) [1]: 764
- P3_MAL Rank (before) [2]: 2101
Sequence: LVAHEISKKMNIFATV

- P8_MAL Rank (after) [3]: 280
- P8_MAL Rank (before) [4]: 1261
Sequence: WFYERMVSMILRDTKV

- P3_MAL Rank (after) [5]: 624
- P3_MAL Rank (before) [6]: 2699
Sequence: PNLRTKVLYYPMRTKT

- Population [9]: 0.00371%
Sequence: AFLYTFLINLTHPTNL

- P8_MAL Rank (after) [5]: 620
- P8_MAL Rank (before) [6]: 2596
Sequence: TFLGHLYNTLVQPAIH

- Population [10]: 0.00338%
Sequence: YAFTGHLHRYLVQCGV

- Rank (after) [13]: 407
- Rank (before) [14]: 2606
Sequence: RNLAGLVYDCLTKTGA

- P8_MAL Rank (after) [5]: 659
- P8_MAL Rank (before) [6]: 1999
Sequence: DTILKKGEGIAPELLR

- P8_MAL Rank (after) [3]: 279
- P8_MAL Rank (before) [4]: 2529
Sequence: SSWWILKELQEILNYQ

- P8_MAL Rank (after) [7]: 526
- P8_MAL Rank (before) [8]: 2219
Sequence: RNFVAYLFKALANTGI

- P3_MAL Rank (after) [7]: 520
- P3_MAL Rank (before) [8]: 1989
Sequence: DWIREQLRPALKKRLP

- P3_MAL Rank (after) [5]: 644
- P3_MAL Rank (before) [6]: 3576
Sequence: KEVEGWRDALTKAPI

- P3_MAL Rank (after) [3]: 249
- P3_MAL Rank (before) [4]: 1409
Sequence: YAFTGHLHRYLVQPGG

- P3_MAL Rank (after) [1]: 745
- P3_MAL Rank (before) [2]: 2091
Sequence: LVVQENLKQLLLFGGL

- Population [10]: 0.00451%
Sequence: PNLRTKVLNYLMRSKT

- P8_MAL Rank (after) [7]: 488
- P8_MAL Rank (before) [8]: 2152
Sequence: LFWELLRQALGSRNRL

- P8_MAL Rank (after) [3]: 238
- P8_MAL Rank (before) [4]: 800
Sequence: YLLLSVFQTIFARRTE

- Rank (after) [11]: 95
- Rank (before) [12]: 1842
Sequence: AFLYTFLINLTHLPNF

- Rank (after) [13]: 418
- Rank (before) [14]: 3066
Sequence: SLRNKLLSHLLEEFKS

- P3_MAL Rank (after) [7]: 576
- P3_MAL Rank (before) [8]: 3557
Sequence: KEVEGWRDALAKVASP

- Rank (after) [11]: 439
- Rank (before) [12]: 1507
Sequence: YFLHFMLFRRRGTEYI

- P8_MAL Rank (after) [5]: 617
- P8_MAL Rank (before) [6]: 1988
Sequence: DDAVWVYEHLVKFLEG

- Rank (after) [13]: 182
- Rank (before) [14]: 2432
Sequence: RAFVADLDEALKQRAL

- Rank (after) [13]: 131
- Rank (before) [14]: 369
Sequence: SSFREGLWRLLELSK

- P3_MAL Rank (after) [5]: 585
- P3_MAL Rank (before) [6]: 2391
Sequence: RGFLSHLSHPLQAKDP

- Rank (after) [11]: 464
- Rank (before) [12]: 1504
Sequence: YFLHFLLFSRLDTVYI

- P8_MAL Rank (after) [3]: 215
- P8_MAL Rank (before) [4]: 1986
Sequence: DSKLKKGESIAPALLR

- Population [9]: 0.00309%
Sequence: RNFVAYLFQALANKSI

- P8_MAL Rank (after) [7]: 570
- P8_MAL Rank (before) [8]: 1906
Sequence: AFLGTFLIKLMHATIY

- P8_MAL Rank (after) [1]: 691
- P8_MAL Rank (before) [2]: 2059
Sequence: LFFWGSLKHLLRSGCR

- P3_MAL Rank (after) [7]: 507
- P3_MAL Rank (before) [8]: 2627
Sequence: RSFREGLWRLLELRKQ
